Test results: patent publication US20240208972A1, “LRRK2 INHIBITORS AND USES THEREOF” (NEURON23, INC., priority 2022, published 2024)
pIC50: −log10 of the molar value.

Columns and labels:
Caco-2 cells = assay: Caco-2 bidirectional permeability; assay type: in vitro ADME; conditions: for Caco-2 A2B (10^−6 cm/s): A to B; for Caco-2 A2B (10^−6 cm/s) / Caco-2 B2A (10^−6 cm/s): HBSS pH 7.4, 2 hours; for Caco-2 B2A (10^−6 cm/s): B to A; for Caco-2 ER: Efflux Ratio=Papp (BA)/Papp (AB)
Summary of the method: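 Caco-2 monolayers grown 21–28 days on PET inserts were run in duplicate in HBSS with 10 mM HEPES, pH 7.4. Compound was tested in both directions at […] for 2 h at 37 °C and quantified by LC-MS/MS. Papp, % recovery and efflux ratio (B-A/A-B) were calculated, with lucifer yellow checking monolayer integrity.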

[1] = Human liver microsomal clearance (hLM Cl); assay type: in vitro ADME; conditions: cells marked *
[2] = biological target: T1, wt human LRRK2, catalytic site (Homo sapiens, UniProt Q5S007); assay: TR-FRET LanthaScreen Tb Kinase Activity Assay, LRRK2 kinase inhibition; assay type: biochemical; conditions: 2 nM wt human LRRK2, 400 nM peptide, 38 μM ATP
T1 construct: wt human LRRK2, catalytic site, catalytic site (ThermoFisher/USA); purchased ThermoFisher
Summary of the method: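 TR-FRET LanthaScreen format: 2 nM wt human LRRK2 catalytic domain with 400 nM fluorescein-ERM (LRRKtide) and 38 μM ATP in Kinase Buffer A, after 15 min compound preincubation. Reaction 120 min at RT, then EDTA plus Tb-anti-pLRRKtide antibody for 60 min; emission ratios analysed per kit protocol.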

[3] = Brain penetration (Kp,uu) in CD-1 mice, with plasma and brain tissue binding by equilibrium dialysis; assay type: in vivo; conditions: mouse, brain and plasma (unbound), male CD-1 mice, single IV bolus 1 mg/kg
Procedure: The compounds disclosed herein were tested on CD-1 mice for brain penetration (Kp, uu) according to the following procedures.
Nine male CD-1 mice were administered TEST COMPOUND by single intravenous bolus administration at 1 mg/kg. The vehicle used for IV study was 5% DMSO, 5% solutol, 20% PEG300 and 70% water. The detailed dosing and sampling regimens are described in the following tables.
1.0 mg of test compound was accurately weighed into a glass vial, and slowly added with 104 μL of DMSO and vortexed for 1 min. Then 104 μL of solutol was added and vortexed for 1 min. Then 415 μL of PEG300 was added and vortexed for 1 min. Then 1000 μL of water was added and vortexed for 1 min. Finally, 451 μL of water was added and vortexed for 1 min to get a clear solution.
The body weights were in the range from 28.81 to 31.25 g for males on the first dosing day. All animals received a single intravenous bolus administration of TEST COMPOUND from the tail vein.
Each blood collection (about 0.06 mL per time point) was performed from saphenous vein of each animal into pre-chilled commercial K2-EDTA tubes as anti-coagulant and placed on wet ice until centrifugation.
Plasma samples were then prepared by centrifuging the blood samples at approximately 4° C., 3200×g for 10 minutes. All plasma samples were then quickly frozen over dry ice and kept at −60° C. or lower until LC-MS/MS analysis.
Brain tissue was homogenized using homogenizing buffer (15 mM PBS (pH7.4): MeOH=2:1) at the ratio of 1:9 (1 g tissue with 9 mL buffer, the dilution ratio is 10). The tissue homogenate was kept at −60° C. or lower until LC-MS/MS analysis.
The concentrations of TEST COMPOUND in plasma and brain were determined by using an LC-MS/MS method.
The plasma and brain concentration of TEST COMPOUND in study animals was subjected to a non-compartmental pharmacokinetic analysis by using the Phoenix WinNonlin software program (version 6.3 or above, Pharsight). The linear/log trapezoidal rule was applied in obtaining the PK parameters.
Individual plasma and brain concentration values that were below the lower limit of quantitation (LLOQ) were excluded from the PK parameter calculation. The nominal dose levels and nominal sampling times were used in the calculation of all pharmacokinetic parameters.
Mouse Kp, uu=(% free in mouse brain*concentration in mouse brain)/(% free in mouse plasma*concentration in mouse plasma)
The dialysis apparatus was assembled according to the manufacturer's instruction. Each Cell was filled with 120 μL of spiked plasma sample and dialyzed against equal volume of dialysis buffer (PBS). The assay was performed in duplicate. The dialysis plates were sealed and incubated in an incubator at 37° C. with 5% CO2 and rotated at 100 rpm for 6 hours. At the end of incubation, the seals were removed and 50 μL of samples from both buffer and plasma chambers were transferred to a 96-well plate.
All calculations were carried out using Microsoft Excel. The concentrations of test compound and control compound in the buffer and plasma chambers were determined from peak area ratios (PAR) of analyte to internal standard. Protein binding (% unbound and % bound) and recovery (% recovery) of test and control compounds was calculated as follows:
• 1. Thawing of the frozen brain (stored at −80° C.) • Frozen brain tissue was thawed at room temperature in a bath. Only brain tissue was used that was thawed no more than once. • 2. Preparation of brain tissue homogenate • Brain tissue homogenate was prepared by diluting one quantity (g) of the whole brain tissue with three volumes (mL) of buffer (PBS, pH 7.4) and homogenizing the mixture using a tissue homogenizer. Brain tissue homogenate was frozen at −80° C. for later use/comparison. • 3. Preparation of working solutions • The working solutions of test compound and the control compound propranolol were prepared in dimethyl sulfoxide (DMSO) at the concentration of 200 μM. […]

T1 sequence (Q5S007 1879-2138 limits assumed): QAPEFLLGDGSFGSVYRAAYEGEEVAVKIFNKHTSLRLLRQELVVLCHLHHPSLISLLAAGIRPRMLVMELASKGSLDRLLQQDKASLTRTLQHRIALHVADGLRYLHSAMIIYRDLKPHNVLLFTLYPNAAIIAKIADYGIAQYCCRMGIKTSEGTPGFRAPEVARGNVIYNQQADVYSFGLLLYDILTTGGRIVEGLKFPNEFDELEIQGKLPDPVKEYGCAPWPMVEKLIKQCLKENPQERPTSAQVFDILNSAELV

## Cc1n[nH]c2c1N=C(c1c(F)cccc1F)Nc1c-2cc(N2CCC[C@@]3(CCOC3)C2)nc1C (single isomer, unassigned) [Example 49]
Caco-2 cells
  Caco-2 A2B (10^−6 cm/s): H (H (High permeability)”: A2B (B2A)>5)
  Caco-2 B2A (10^−6 cm/s): H (H (High permeability)”: A2B (B2A)>5)
  Caco-2 ER: N (N (Non-substrate)”: ER<2.5)
[1]
  hLM Cl (mL/min/kg): I* (I (Intermediate C1)”: 6.3 mL/min/kg≤Hep Cl≤14.7 mL/min/kg)
[2]
  pIC50: > 8.70
[3]
  Kp uu: 0.2 to 0.4

## Cc1n[nH]c2c1N=C(c1c(F)cccc1F)Nc1c-2cc(N2CCN(CCF)[C@@H](C)C2)nc1C [Example 21, (S)-5-(2,6-difluorophenyl)-9-(4-(2-fluoroethyl)-3-methylpiperazin-1-yl)-3,7-dimethyl-1,6-dihydropyrazolo[4,3-d]pyrido[4,3-f][1,3]diazepine]
Caco-2 cells
  Caco-2 A2B (10^−6 cm/s): H (H (High permeability)”: A2B (B2A)>5)
  Caco-2 B2A (10^−6 cm/s): H (H (High permeability)”: A2B (B2A)>5)
  Caco-2 ER: N (N (Non-substrate)”: ER<2.5)
[1]
  hLM Cl (mL/min/kg): L* (L (Low C1)”: Hep Cl<6.3 mL/min/kg)
[2]
  pIC50: > 8.70
[3]
  Kp uu: 0.2 to 0.4

## Cc1n[nH]c2c1N=C(c1c(F)cccc1F)Nc1ccc(N3CCN(C)C(C(F)(F)F)C3)cc1-2 (stereo not drawn) [Example 6, 5-(2,6-difluorophenyl)-3-methyl-9-[4-methyl-3-(trifluoromethyl)piperazin-1-yl]-1,6-dihydropyrazolo[4,3-d][1,3]benzodiazepine]
Caco-2 cells
  Caco-2 A2B (10^−6 cm/s): H (H (High permeability)”: A2B (B2A)>5)
  Caco-2 B2A (10^−6 cm/s): H (H (High permeability)”: A2B (B2A)>5)
  Caco-2 ER: N (N (Non-substrate)”: ER<2.5)
[1]
  hLM Cl (mL/min/kg): L* (L (Low C1)”: Hep Cl<6.3 mL/min/kg)
[2]
  pIC50: > 8.70
[3]
  Kp uu: 0.2 to 0.4

## [2H]C([2H])([2H])c1n[nH]c2c1N=C(c1c(F)cccc1F)Nc1ccc(N3CCO[C@H](C)C3)cc1-2 [Example 11, (2R)-4-[5-(2,6-difluorophenyl)-3-(trideuteriomethyl)-1,6-dihydropyrazolo[4,3-d][1,3]benzodiazepin-9-yl]-2-methyl-morpholine]
Caco-2 cells
  Caco-2 A2B (10^−6 cm/s): H (H (High permeability)”: A2B (B2A)>5)
  Caco-2 B2A (10^−6 cm/s): H (H (High permeability)”: A2B (B2A)>5)
  Caco-2 ER: N (N (Non-substrate)”: ER<2.5)
[1]
  hLM Cl (mL/min/kg): L* (L (Low C1)”: Hep Cl<6.3 mL/min/kg)
[2]
  pIC50: 7.00 to 8.70
[3]
  Kp uu: 0.2 to 0.4

## Cc1n[nH]c2c1N=C(c1c(F)cccc1F)Nc1c-2cc(N2CCN(C)[C@@H](C(F)(F)F)C2)nc1C (single isomer, unassigned) [Example 37]
Caco-2 cells
  Caco-2 A2B (10^−6 cm/s): H (H (High permeability)”: A2B (B2A)>5)
  Caco-2 B2A (10^−6 cm/s): H (H (High permeability)”: A2B (B2A)>5)
  Caco-2 ER: N (N (Non-substrate)”: ER<2.5)
[1]
  hLM Cl (mL/min/kg): I* (I (Intermediate C1)”: 6.3 mL/min/kg≤Hep Cl≤14.7 mL/min/kg)
[2]
  pIC50: > 8.70
[3]
  Kp uu: 0.2 to 0.4
